The values below come from patent publication US7410965B2, “Delayed release pharmaceutical composition containing 1-dimethyl-amino-3-(3-methoxyphenyl)-2-methyl-pentan-3-ol” (Gruenenthal GmbH, priority 2002, dated 2008).

Marks after values point to notes of the source that are not given here.

The subject of the assay is female Sprague-Dawley rats. Briefly: Cystometry test system on conscious fresh rats. To be noted: for BC Bladder Capacity, change compared to the baseline value / ICI Inter-Contraction Interval, change compared to the baseline value / TP Threshold Pressure, change compared to the baseline value: effect maximum; for effect on the bladder regulation (in words): cystometry, iv. The format is in vivo, rat. As for the experimental part: Cystometry investigations were carried out on fresh female Sprague-Dawley rats according to the method of Ishizuka et al. ((1997), Naunyn-Schmiedeberg's Arch. Pharmacol. 355: 787-793). Three days after implantation of bladder and venous catheters the animals were investigated in the conscious state while freely moving. The bladder catheter was connected to a pressure gauge and an injection pump. The animals were placed in metabolic cages that enabled the volume of urine to be measured. Physiological saline solution was infused (10 ml/hour) into the emptied bladder and the bladder pressure and volume of urine were continuously recorded. After a stabilisation phase a 20-minute phase was recorded that was characterised by normal, reproducible micturition cycles. The following parameters among others were measured: • threshold pressure TP, bladder pressure immediately before micturition, • bladder capacity BC, residual volume after prior micturition plus volume of infused solution during the filling phase, • intercontraction interval ICI, i.e. the time interval between consecutive micturition.
An increase in the threshold pressure (TP) indicates an important therapeutic effect in one of the medical conditions covered by the invention. Also, the intercontraction interval (ICI) is an important parameter for measuring the physiological effectiveness of a substance in the treatment of urinary incontinence, as is the bladder capacity (BC). In this connection, on account of the widely differing causes of the symptoms of these disease patterns it is not necessary to influence positively all three parameters in order for a medicament to be effective.
After recording three reproducible micturition cycles to provide a baseline value, the test substances (1 (1.0 mg/kg), 2 (0.1; 0.3 and 0.5 mg/kg) and 21 (0.5 mg/kg), in a vehicle comprising 0.9% NaCl were applied intravenously and the effect on the cystometric parameters was recorded at 90 to 120 minutes. In the effect maximum the mean value of 3 micturition cycles was determined and recorded as a percentage change compared to the baseline value (Table 1).

Regarding `CC[C@](O)(c1cccc(OC)c1)[C@H](C)CN(C)C.Cl` (racemic) [Compound 1, (2RS,3RS)-1-dimethylamino-3-(3-methoxyphenyl)-2-methylpentan-3-ol; hydrochloride], under “1.0 mg/kg iv”, the “BC Bladder Capacity, change compared to the baseline value” (“BC Bladder Capacity, change” below) is “+31%***”; the “ICI Inter-Contraction Interval, change compared to the baseline value” (“ICI Inter-Contraction Interval, change” for short) is reported as “+42%”; the “TP Threshold Pressure, change compared to the baseline value” (“TP Threshold Pressure, change” for short) is “+94%**”.

In the case of `CC[C@](O)(c1cccc(OC)c1)[C@H](C)CN(C)C.Cl` [Compound 2, (+)-(2R,3R)-1-dimethylamino-3-(3-methoxyphenyl)-2-methylpentan-3-ol; hydrochloride], the “effect on the bladder regulation (in words)” value is reported as “very effective”. Further, where the note is “0.1 mg/kg iv”, the “BC Bladder Capacity, change” value is “+7.8%”; the “ICI Inter-Contraction Interval, change” value is recorded as “+15.6%”; the “TP Threshold Pressure, change” value was “+28.5%**”. In addition, for the setting “0.3 mg/kg iv”, the “BC Bladder Capacity, change” value is reported as “+33%*”; the “ICI Inter-Contraction Interval, change” value is recorded as “+28%*”; the “TP Threshold Pressure, change” value is listed as “+122%**”. In addition, for the setting “0.5 mg/kg iv”, the “BC Bladder Capacity, change” value is listed as “+20.6%*”; the “ICI Inter-Contraction Interval, change” value is “+28.6%**”; the “TP Threshold Pressure, change” value is “+77.5%**”.

With `CC[C@@](O)(c1cccc(OC)c1)[C@@H](C)CN(C)C.Cl` [Compound 21, (−)-(2S,3S)-1-dimethylamino-3-(3-methoxyphenyl)-2-methylpentan-3-ol; hydrochloride], the “effect on the bladder regulation (in words)” value is recorded as “does not exhibit such a marked effect”. Further, where the note is “0.5 mg/kg iv”, the “BC Bladder Capacity, change” value is reported as “+3%”; the “ICI Inter-Contraction Interval, change” value was “+10%”; the “TP Threshold Pressure, change” value is −1.1%.
